Measurements published in publication PMC7407272, “Induction of Lysosome Membrane Permeabilization as a Therapeutic Strategy to Target Pancreatic Cancer Stem Cells” (Cancers, 2020).

Key:
Assay in all cases: KINOMEscan
Format in all cases: binding
Settings in all cases: read-out: % Ctrl
[1] = target: T1, INSRR (Homo sapiens, UniProt P14616)
T1 construct: purchased DiscoveRx KINOMEscan

[2] = target: T2, PIP5K1A (Homo sapiens, UniProt Q99755)
T2 construct: purchased DiscoveRx KINOMEscan

[3] = target: T3, IKK-epsilon (Homo sapiens, UniProt Q14164)
T3 construct: purchased DiscoveRx KINOMEscan

[4] = target: T4, CHEK2 (Homo sapiens, UniProt O96017)
T4 construct: purchased DiscoveRx KINOMEscan

[5] = target: T5, MYLK (Homo sapiens, UniProt Q15746)
T5 construct: purchased DiscoveRx KINOMEscan

[6] = target: T6, MLK3 (Homo sapiens, UniProt Q16584)
T6 construct: purchased DiscoveRx KINOMEscan

[7] = target: T7, CAMK1B (Homo sapiens, UniProt Q6P2M8)
T7 construct: purchased DiscoveRx KINOMEscan

[8] = target: T8, KIT(D816V) (Homo sapiens, UniProt P10721, D816V)
T8 construct: purchased DiscoveRx KINOMEscan

[9] = target: T9, EPHB2 (Homo sapiens, UniProt P29323)
T9 construct: purchased DiscoveRx KINOMEscan

[10] = target: T10, PKAC-beta (Homo sapiens, UniProt P22694)
T10 construct: purchased DiscoveRx KINOMEscan

[11] = target: T11, CLK4 (Homo sapiens, UniProt Q9HAZ1)
T11 construct: purchased DiscoveRx KINOMEscan

[12] = target: T12, LATS2 (Homo sapiens, UniProt Q9NRM7)
T12 construct: purchased DiscoveRx KINOMEscan

[13] = target: T13, GSK3A (Homo sapiens, UniProt P49840)
T13 construct: purchased DiscoveRx KINOMEscan

[14] = target: T14, NDR1 (Homo sapiens, UniProt Q15208)
T14 construct: purchased DiscoveRx KINOMEscan

[15] = target: T15, CDKL3 (Homo sapiens, UniProt Q8IVW4)
T15 construct: purchased DiscoveRx KINOMEscan

[16] = target: T16, MKNK2 (Homo sapiens, UniProt Q9HBH9)
T16 construct: purchased DiscoveRx KINOMEscan

[17] = target: T17, ULK3 (Homo sapiens, UniProt Q6PHR2)
T17 construct: purchased DiscoveRx KINOMEscan

[18] = target: T18, WNK3 (Homo sapiens, UniProt Q9BYP7)
T18 construct: purchased DiscoveRx KINOMEscan

[19] = target: T19, CLK3 (Homo sapiens, UniProt P49761)
T19 construct: purchased DiscoveRx KINOMEscan

[20] = target: T20, FRK (Homo sapiens, UniProt P42685)
T20 construct: purchased DiscoveRx KINOMEscan

[21] = target: T21, PRKX (Homo sapiens, UniProt P51817)
T21 construct: purchased DiscoveRx KINOMEscan

[22] = target: T22, CDKL1 (Homo sapiens, UniProt Q00532)
T22 construct: purchased DiscoveRx KINOMEscan

[23] = target: T23, FLT4 (Homo sapiens, UniProt P35916)
T23 construct: purchased DiscoveRx KINOMEscan

[24] = target: T24, MET (Homo sapiens, UniProt P08581)
T24 construct: purchased DiscoveRx KINOMEscan

[25] = target: T25, ROCK1 (Homo sapiens, UniProt Q13464)
T25 construct: purchased DiscoveRx KINOMEscan

[26] = target: T26, MST2 (Homo sapiens, UniProt Q13188)
T26 construct: purchased DiscoveRx KINOMEscan

[27] = target: T27, RSK2(KD1-N-t.) (Homo sapiens, UniProt P51812)
T27 construct: RSK2(KD1-N-t.); purchased DiscoveRx KINOMEscan

[28] = target: T28, TRPM6 (Homo sapiens, UniProt Q9BX84)
T28 construct: purchased DiscoveRx KINOMEscan

[29] = target: T29, ABL1(E255K)-P (Homo sapiens, UniProt P00519, E255K)
T29 construct: purchased DiscoveRx KINOMEscan

[30] = target: T30, TRKA (Homo sapiens, UniProt P04629)
T30 construct: purchased DiscoveRx KINOMEscan

[31] = target: T31, SRPK1 (Homo sapiens, UniProt Q96SB4)
T31 construct: purchased DiscoveRx KINOMEscan

[32] = target: T32, CAMK4 (Homo sapiens, UniProt Q16566)
T32 construct: purchased DiscoveRx KINOMEscan

[33] = target: T33, BLK (Homo sapiens, UniProt P51451)
T33 construct: purchased DiscoveRx KINOMEscan

[34] = target: T34, PIK3CD (Homo sapiens, UniProt O00329)
T34 construct: purchased DiscoveRx KINOMEscan

[35] = target: T35, RSK4(KD2-C-t.) (Homo sapiens, UniProt Q9UK32)
T35 construct: RSK4(KD2-C-t.); purchased DiscoveRx KINOMEscan

[36] = target: T36, PIK3CA(E545K) (Homo sapiens, UniProt P42336, E545K)
T36 construct: purchased DiscoveRx KINOMEscan

[37] = target: T37, YSK1 (Homo sapiens, UniProt O00506)
T37 construct: purchased DiscoveRx KINOMEscan

[38] = target: T38, PRKG2 (Homo sapiens, UniProt Q13237)
T38 construct: purchased DiscoveRx KINOMEscan

[39] = target: T39, MKNK1 (Homo sapiens, UniProt Q9BUB5)
T39 construct: purchased DiscoveRx KINOMEscan

[40] = target: T40, MST1R (Homo sapiens, UniProt Q04912)
T40 construct: purchased DiscoveRx KINOMEscan

[41] = target: T41, CLK2 (Homo sapiens, UniProt P49760)
T41 construct: purchased DiscoveRx KINOMEscan

[42] = target: T42, ABL1(T315I)-P (Homo sapiens, UniProt P00519, T315I)
T42 construct: purchased DiscoveRx KINOMEscan

[43] = target: T43, ROS1 (Homo sapiens, UniProt P08922)
T43 construct: purchased DiscoveRx KINOMEscan

[44] = target: T44, ACVR2A (Homo sapiens, UniProt P27037)
T44 construct: purchased DiscoveRx KINOMEscan

T24 sequence (P08581 25-1390): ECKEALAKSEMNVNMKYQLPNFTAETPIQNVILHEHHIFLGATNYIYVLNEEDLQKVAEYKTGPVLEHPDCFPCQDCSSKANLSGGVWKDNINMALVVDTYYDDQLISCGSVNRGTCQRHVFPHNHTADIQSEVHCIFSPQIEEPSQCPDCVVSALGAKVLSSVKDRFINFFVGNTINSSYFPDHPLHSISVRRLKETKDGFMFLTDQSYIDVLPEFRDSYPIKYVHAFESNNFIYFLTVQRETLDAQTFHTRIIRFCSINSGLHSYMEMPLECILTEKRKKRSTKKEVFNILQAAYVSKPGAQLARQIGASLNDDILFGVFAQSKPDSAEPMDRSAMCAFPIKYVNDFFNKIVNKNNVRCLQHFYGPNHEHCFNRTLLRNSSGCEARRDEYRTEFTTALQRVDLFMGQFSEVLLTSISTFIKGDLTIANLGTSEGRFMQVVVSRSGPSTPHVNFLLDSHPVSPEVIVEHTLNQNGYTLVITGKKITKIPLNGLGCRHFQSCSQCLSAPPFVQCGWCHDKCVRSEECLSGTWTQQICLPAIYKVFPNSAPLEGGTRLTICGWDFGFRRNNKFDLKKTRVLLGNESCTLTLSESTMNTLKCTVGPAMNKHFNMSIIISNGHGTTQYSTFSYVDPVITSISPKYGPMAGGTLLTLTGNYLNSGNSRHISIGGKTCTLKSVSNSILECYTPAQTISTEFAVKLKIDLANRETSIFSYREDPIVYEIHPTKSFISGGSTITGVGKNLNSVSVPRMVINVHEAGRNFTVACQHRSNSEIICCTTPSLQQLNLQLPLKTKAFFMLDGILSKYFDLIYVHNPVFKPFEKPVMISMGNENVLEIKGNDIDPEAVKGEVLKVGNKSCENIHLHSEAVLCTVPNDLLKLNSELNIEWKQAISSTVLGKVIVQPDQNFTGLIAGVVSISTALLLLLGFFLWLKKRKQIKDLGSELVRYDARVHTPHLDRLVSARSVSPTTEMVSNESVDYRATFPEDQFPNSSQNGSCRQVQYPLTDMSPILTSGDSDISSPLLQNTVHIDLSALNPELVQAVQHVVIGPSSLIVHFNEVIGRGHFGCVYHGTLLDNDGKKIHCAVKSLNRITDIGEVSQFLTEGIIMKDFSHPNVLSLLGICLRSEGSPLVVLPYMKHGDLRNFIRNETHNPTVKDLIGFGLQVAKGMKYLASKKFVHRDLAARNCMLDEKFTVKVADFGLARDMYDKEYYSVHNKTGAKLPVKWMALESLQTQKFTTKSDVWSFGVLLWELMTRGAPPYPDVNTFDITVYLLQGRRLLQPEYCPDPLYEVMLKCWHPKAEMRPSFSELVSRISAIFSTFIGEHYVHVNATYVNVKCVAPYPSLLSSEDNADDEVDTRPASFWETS
T37 sequence (O00506 whole entry): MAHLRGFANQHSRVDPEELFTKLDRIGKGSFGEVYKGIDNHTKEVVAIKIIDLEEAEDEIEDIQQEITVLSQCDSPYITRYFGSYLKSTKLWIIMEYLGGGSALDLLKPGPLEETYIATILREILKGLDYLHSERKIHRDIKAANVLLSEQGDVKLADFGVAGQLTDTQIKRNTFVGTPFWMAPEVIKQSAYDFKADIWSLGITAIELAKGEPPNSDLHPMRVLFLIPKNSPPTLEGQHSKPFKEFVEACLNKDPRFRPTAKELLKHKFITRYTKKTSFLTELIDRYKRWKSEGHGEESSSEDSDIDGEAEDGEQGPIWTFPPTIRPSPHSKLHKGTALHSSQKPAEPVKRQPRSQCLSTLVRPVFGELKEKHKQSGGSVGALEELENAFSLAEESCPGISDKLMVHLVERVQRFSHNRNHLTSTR
T18 sequence (Q9BYP7 whole entry): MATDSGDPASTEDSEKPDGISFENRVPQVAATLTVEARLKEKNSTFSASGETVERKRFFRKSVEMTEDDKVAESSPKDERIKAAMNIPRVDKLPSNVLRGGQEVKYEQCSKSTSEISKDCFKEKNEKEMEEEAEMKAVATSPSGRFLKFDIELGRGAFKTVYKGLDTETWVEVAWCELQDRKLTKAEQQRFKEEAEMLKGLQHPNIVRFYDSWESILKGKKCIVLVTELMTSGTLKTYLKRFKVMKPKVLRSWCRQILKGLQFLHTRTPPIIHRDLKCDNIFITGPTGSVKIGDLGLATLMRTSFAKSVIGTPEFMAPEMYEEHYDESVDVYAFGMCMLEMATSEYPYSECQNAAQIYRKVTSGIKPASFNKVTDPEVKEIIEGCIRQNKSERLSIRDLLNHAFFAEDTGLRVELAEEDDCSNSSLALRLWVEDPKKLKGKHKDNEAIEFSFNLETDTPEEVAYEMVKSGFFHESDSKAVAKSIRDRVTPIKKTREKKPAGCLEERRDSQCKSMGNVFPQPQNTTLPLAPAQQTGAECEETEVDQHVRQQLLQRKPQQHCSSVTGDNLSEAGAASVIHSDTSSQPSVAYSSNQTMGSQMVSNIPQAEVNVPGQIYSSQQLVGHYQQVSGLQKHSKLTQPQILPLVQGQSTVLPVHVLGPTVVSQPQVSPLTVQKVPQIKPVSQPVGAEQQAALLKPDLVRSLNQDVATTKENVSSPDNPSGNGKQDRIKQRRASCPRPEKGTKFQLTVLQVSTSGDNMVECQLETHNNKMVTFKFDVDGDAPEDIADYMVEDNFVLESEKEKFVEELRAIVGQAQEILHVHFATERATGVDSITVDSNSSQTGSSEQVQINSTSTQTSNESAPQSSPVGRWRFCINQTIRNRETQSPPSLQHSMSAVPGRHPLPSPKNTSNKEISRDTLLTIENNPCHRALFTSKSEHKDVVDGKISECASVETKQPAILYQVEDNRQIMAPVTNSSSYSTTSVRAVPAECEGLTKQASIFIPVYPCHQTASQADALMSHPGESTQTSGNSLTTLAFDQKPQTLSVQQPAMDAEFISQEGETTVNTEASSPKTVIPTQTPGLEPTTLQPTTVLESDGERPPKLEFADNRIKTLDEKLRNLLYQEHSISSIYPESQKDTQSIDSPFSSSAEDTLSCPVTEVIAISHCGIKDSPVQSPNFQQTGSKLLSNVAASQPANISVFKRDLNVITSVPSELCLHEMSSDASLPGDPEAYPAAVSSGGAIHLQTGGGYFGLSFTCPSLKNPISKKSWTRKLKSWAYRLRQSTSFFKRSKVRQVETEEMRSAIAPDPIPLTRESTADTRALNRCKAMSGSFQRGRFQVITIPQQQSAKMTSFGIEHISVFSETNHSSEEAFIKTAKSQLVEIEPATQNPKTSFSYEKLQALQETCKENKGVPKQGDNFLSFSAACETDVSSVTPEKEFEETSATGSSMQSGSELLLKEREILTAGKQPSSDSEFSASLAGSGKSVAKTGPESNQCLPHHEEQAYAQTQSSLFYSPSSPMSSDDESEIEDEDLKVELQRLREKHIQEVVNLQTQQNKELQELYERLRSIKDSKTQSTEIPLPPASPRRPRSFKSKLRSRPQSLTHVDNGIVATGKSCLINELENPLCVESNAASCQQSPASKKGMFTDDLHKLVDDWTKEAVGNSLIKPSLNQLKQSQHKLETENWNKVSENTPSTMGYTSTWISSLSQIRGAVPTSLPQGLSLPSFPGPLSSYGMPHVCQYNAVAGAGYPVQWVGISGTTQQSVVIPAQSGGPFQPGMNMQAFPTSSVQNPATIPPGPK
T13 sequence (P49840 whole entry): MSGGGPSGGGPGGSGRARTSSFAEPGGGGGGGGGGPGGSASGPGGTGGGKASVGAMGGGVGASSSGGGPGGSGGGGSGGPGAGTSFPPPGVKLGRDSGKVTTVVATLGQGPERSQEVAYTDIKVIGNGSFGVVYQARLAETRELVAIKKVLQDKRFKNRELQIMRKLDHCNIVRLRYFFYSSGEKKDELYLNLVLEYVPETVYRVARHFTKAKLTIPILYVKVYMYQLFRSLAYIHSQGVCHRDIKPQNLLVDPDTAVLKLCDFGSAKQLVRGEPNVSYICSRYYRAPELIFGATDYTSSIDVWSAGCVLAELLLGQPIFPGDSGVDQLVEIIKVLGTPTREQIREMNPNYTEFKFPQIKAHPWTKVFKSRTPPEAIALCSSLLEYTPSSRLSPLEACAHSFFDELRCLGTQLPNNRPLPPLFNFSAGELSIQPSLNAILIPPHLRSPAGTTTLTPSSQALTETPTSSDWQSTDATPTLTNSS
T15 sequence (Q8IVW4 whole entry): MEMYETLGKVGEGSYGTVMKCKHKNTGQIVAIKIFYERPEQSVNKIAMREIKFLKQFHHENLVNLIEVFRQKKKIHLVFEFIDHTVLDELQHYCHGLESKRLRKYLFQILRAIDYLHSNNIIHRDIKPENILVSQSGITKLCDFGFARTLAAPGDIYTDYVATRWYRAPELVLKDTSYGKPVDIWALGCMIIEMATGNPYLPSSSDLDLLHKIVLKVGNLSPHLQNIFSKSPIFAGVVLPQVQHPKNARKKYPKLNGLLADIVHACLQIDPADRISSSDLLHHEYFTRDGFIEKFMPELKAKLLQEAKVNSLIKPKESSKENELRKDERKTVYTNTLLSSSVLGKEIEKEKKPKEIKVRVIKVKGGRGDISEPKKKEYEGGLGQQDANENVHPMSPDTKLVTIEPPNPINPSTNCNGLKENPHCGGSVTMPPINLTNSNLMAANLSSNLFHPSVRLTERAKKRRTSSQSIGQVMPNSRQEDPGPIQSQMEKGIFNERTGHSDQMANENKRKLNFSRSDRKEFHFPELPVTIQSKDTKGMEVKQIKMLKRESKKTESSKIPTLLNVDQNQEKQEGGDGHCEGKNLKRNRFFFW
T27 sequence (P51812 1-397 limits assumed): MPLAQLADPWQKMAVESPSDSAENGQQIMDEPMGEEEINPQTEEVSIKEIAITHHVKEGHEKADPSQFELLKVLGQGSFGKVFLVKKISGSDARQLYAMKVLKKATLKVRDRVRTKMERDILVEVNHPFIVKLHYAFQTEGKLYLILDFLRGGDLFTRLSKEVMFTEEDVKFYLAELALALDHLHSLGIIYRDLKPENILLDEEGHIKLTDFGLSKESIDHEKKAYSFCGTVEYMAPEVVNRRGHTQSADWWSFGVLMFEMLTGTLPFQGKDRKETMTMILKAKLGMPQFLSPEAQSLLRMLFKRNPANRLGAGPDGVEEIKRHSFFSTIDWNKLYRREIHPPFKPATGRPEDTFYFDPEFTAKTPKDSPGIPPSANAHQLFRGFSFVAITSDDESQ

Compound `CN1CCC(CNc2ccc3ncc(C(=O)Nc4cccc(OC(F)(F)F)c4)n3n2)CC1` [Cpd 2] has a remaining binding at 1 µM [1] of 94%, a remaining binding at 1 µM [2] of 100% and a remaining binding at 1 µM [3] of 100%. It also gave a remaining binding at 1 µM [4] of 95%, a remaining binding at 1 µM [5] of 100% and a remaining binding at 1 µM [6] of 100%. For the same compound, the remaining binding at 1 µM [7] was 97%, the remaining binding at 1 µM [8] was 89% and the remaining binding at 1 µM [9] was 95%. It also gave a remaining binding at 1 µM [10] of 88%, a remaining binding at 1 µM [11] of 100% and a remaining binding at 1 µM [12] of 99%. The remaining binding at 1 µM [13] was 100%, the remaining binding at 1 µM [14] was 89% and the remaining binding at 1 µM [15] was 91%. The remaining binding at 1 µM [16] was 96%, the remaining binding at 1 µM [17] was 78% and the remaining binding at 1 µM [18] was 99%. It also gave a remaining binding at 1 µM [19] of 93%, a remaining binding at 1 µM [20] of 100% and a remaining binding at 1 µM [21] of 100%. It also gave a remaining binding at 1 µM [22] of 97%, a remaining binding at 1 µM [23] of 100% and a remaining binding at 1 µM [24] of 100%. It also gave a remaining binding at 1 µM [25] of 50%, a remaining binding at 1 µM [26] of 100% and a remaining binding at 1 µM [27] of 89%. The remaining binding at 1 µM [28] was 100%, the remaining binding at 1 µM [29] was 85% and the remaining binding at 1 µM [30] was 82%. For the same compound, the remaining binding at 1 µM [31] was 95%, the remaining binding at 1 µM [32] was 100% and the remaining binding at 1 µM [33] was 100%. The remaining binding at 1 µM [34] was 85%, the remaining binding at 1 µM [35] was 84% and the remaining binding at 1 µM [36] was 87%. It also gave a remaining binding at 1 µM [37] of 95%, a remaining binding at 1 µM [38] of 100% and a remaining binding at 1 µM [39] of 86%. The remaining binding at 1 µM [40] was 100%, the remaining binding at 1 µM [41] was 81% and the remaining binding at 1 µM [42] was 100%. The remaining binding at 1 µM [43] was 91% and the remaining binding at 1 µM [44] was 100%.
